# According to US20250223268A1, “4-Methylsulfonylbenzamide Compound, Preparation Method, Herbicidal Composition And Use” (Jiangsu Flag Chemical Industry Co., Ltd., priority 2022, published 2025):
# How the values were obtained:
# Assay in all cases: Greenhouse herbicidal activity assay, post-emergence
# Assay type in all cases: in vivo
# Conditions in all cases: Post-emergence test, rate 150 g a.i./hm^2; grade by fresh weight inhibition rate
# Echinochloa crusgalli = tested on: Echinochloa crusgalli
# Outline: (§1)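 Graded A (≥80%) to E (<20%) by fresh weight inhibition, read 14-21 days after spraying. Plants were pot-grown in a growth chamber and received foliar application at the 3-6 leaf stage, being air-dried and returned to the chamber afterwards.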
# Cyperus iria = tested on: Cyperus iria
# Outline: as §1
# Leptochloa chinensis = tested on: Leptochloa chinensis
# Outline: as §1
# Digitaria sanguinalis = tested on: Digitaria sanguinalis
# Outline: as §1
# Eclipta prostrata = tested on: Eclipta prostrata
# Outline: as §1
SMILES,"Control efficacy grade, Echinochloa crusgalli (Echinochloa crusgalli)","Control efficacy grade, Cyperus iria (Cyperus iria)","Control efficacy grade, Leptochloa chinensis (Leptochloa chinensis)","Control efficacy grade, Digitaria sanguinalis (Digitaria sanguinalis)","Control efficacy grade, Eclipta prostrata (Eclipta prostrata)"
Cc1nnc(NC(=O)c2ccc(S(C)(=O)=O)c([S+]([O-])CCC(C)C)c2Cl)o1 (racemic) [Compound 3-53],B (Fresh weight inhibition rate≥260% to <80%),A (Fresh weight inhibition rate≥80% to 100%),A (Fresh weight inhibition rate≥80% to 100%),A (Fresh weight inhibition rate≥80% to 100%),A (Fresh weight inhibition rate≥80% to 100%)
Cc1nnc(NC(=O)c2ccc(S(C)(=O)=O)c([S+]([O-])C3CC3)c2Cl)o1 (racemic) [Compound 3-78],A (Fresh weight inhibition rate≥80% to 100%),A (Fresh weight inhibition rate≥80% to 100%),A (Fresh weight inhibition rate≥80% to 100%),A (Fresh weight inhibition rate≥80% to 100%),A (Fresh weight inhibition rate≥80% to 100%)
Cc1nnc(NC(=O)c2ccc(S(C)(=O)=O)c([S+]([O-])C3CCC3)c2Cl)o1 (racemic) [Compound 3-83],A (Fresh weight inhibition rate≥80% to 100%),A (Fresh weight inhibition rate≥80% to 100%),A (Fresh weight inhibition rate≥80% to 100%),A (Fresh weight inhibition rate≥80% to 100%),A (Fresh weight inhibition rate≥80% to 100%)
Cc1nnc(NC(=O)c2ccc(S(C)(=O)=O)c([S+]([O-])C3CCCC3)c2Cl)o1 (racemic) [Compound 3-88],A (Fresh weight inhibition rate≥80% to 100%),A (Fresh weight inhibition rate≥80% to 100%),A (Fresh weight inhibition rate≥80% to 100%),A (Fresh weight inhibition rate≥80% to 100%),A (Fresh weight inhibition rate≥80% to 100%)
Cc1nnc(NC(=O)c2ccc(S(C)(=O)=O)c([S+]([O-])C3CCCCC3)c2Cl)o1 (racemic) [Compound 3-93],A (Fresh weight inhibition rate≥80% to 100%),A (Fresh weight inhibition rate≥80% to 100%),A (Fresh weight inhibition rate≥80% to 100%),A (Fresh weight inhibition rate≥80% to 100%),A (Fresh weight inhibition rate≥80% to 100%)
Cc1nnc(NC(=O)c2ccc(S(C)(=O)=O)c([S+]([O-])CC(F)(F)F)c2Cl)o1 (racemic) [Compound 3-98],A (Fresh weight inhibition rate≥80% to 100%),A (Fresh weight inhibition rate≥80% to 100%),A (Fresh weight inhibition rate≥80% to 100%),A (Fresh weight inhibition rate≥80% to 100%),A (Fresh weight inhibition rate≥80% to 100%)
Cc1nnc(NC(=O)c2ccc(S(C)(=O)=O)c([S+]([O-])CC(F)F)c2Cl)o1 (racemic) [Compound 3-103],A (Fresh weight inhibition rate≥80% to 100%),A (Fresh weight inhibition rate≥80% to 100%),A (Fresh weight inhibition rate≥80% to 100%),A (Fresh weight inhibition rate≥80% to 100%),A (Fresh weight inhibition rate≥80% to 100%)
C=CC[S+]([O-])c1c(S(C)(=O)=O)ccc(C(=O)Nc2nnc(C)o2)c1Cl (racemic) [Compound 3-113],A (Fresh weight inhibition rate≥80% to 100%),A (Fresh weight inhibition rate≥80% to 100%),A (Fresh weight inhibition rate≥80% to 100%),A (Fresh weight inhibition rate≥80% to 100%),A (Fresh weight inhibition rate≥80% to 100%)
C=C(C)C[S+]([O-])c1c(S(C)(=O)=O)ccc(C(=O)Nc2nnc(C)o2)c1Cl (racemic) [Compound 3-143],A (Fresh weight inhibition rate≥80% to 100%),A (Fresh weight inhibition rate≥80% to 100%),A (Fresh weight inhibition rate≥80% to 100%),A (Fresh weight inhibition rate≥80% to 100%),A (Fresh weight inhibition rate≥80% to 100%)
Cc1nnc(NC(=O)c2ccc(S(C)(=O)=O)c([S+]([O-])CC#N)c2Cl)o1 (racemic) [Compound 3-193],A (Fresh weight inhibition rate≥80% to 100%),A (Fresh weight inhibition rate≥80% to 100%),A (Fresh weight inhibition rate≥80% to 100%),B (Fresh weight inhibition rate≥260% to <80%),A (Fresh weight inhibition rate≥80% to 100%)
CC(C)[S+]([O-])c1c(S(C)(=O)=O)ccc(C(=O)Nc2nnco2)c1Cl (racemic) [Compound 3-273],A (Fresh weight inhibition rate≥80% to 100%),A (Fresh weight inhibition rate≥80% to 100%),A (Fresh weight inhibition rate≥80% to 100%),A (Fresh weight inhibition rate≥80% to 100%),A (Fresh weight inhibition rate≥80% to 100%)
CCCC[S+]([O-])c1c(S(C)(=O)=O)ccc(C(=O)Nc2nnco2)c1Cl (racemic) [Compound 3-278],A (Fresh weight inhibition rate≥80% to 100%),A (Fresh weight inhibition rate≥80% to 100%),A (Fresh weight inhibition rate≥80% to 100%),A (Fresh weight inhibition rate≥80% to 100%),A (Fresh weight inhibition rate≥80% to 100%)
CCC(C)Sc1c(S(C)(=O)=O)ccc(C(=O)Nc2nnco2)c1Cl (racemic) [Compound 3-282],A (Fresh weight inhibition rate≥80% to 100%),A (Fresh weight inhibition rate≥80% to 100%),A (Fresh weight inhibition rate≥80% to 100%),B (Fresh weight inhibition rate≥260% to <80%),A (Fresh weight inhibition rate≥80% to 100%)
CS(=O)(=O)c1ccc(C(=O)Nc2nnco2)c(Cl)c1[S+]([O-])CC1CC1 (racemic) [Compound 3-299],A (Fresh weight inhibition rate≥80% to 100%),A (Fresh weight inhibition rate≥80% to 100%),A (Fresh weight inhibition rate≥80% to 100%),A (Fresh weight inhibition rate≥80% to 100%),A (Fresh weight inhibition rate≥80% to 100%)
CS(=O)(=O)c1ccc(C(=O)Nc2nnco2)c(Cl)c1[S+]([O-])C1CC1 (racemic) [Compound 3-304],A (Fresh weight inhibition rate≥80% to 100%),A (Fresh weight inhibition rate≥80% to 100%),A (Fresh weight inhibition rate≥80% to 100%),A (Fresh weight inhibition rate≥80% to 100%),A (Fresh weight inhibition rate≥80% to 100%)
CS(=O)(=O)c1ccc(C(=O)Nc2nnco2)c(Cl)c1[S+]([O-])C1CCC1 (racemic) [Compound 3-309],A (Fresh weight inhibition rate≥80% to 100%),A (Fresh weight inhibition rate≥80% to 100%),A (Fresh weight inhibition rate≥80% to 100%),A (Fresh weight inhibition rate≥80% to 100%),A (Fresh weight inhibition rate≥80% to 100%)
CS(=O)(=O)c1ccc(C(=O)Nc2nnco2)c(Cl)c1[S+]([O-])C1CCCC1 (racemic) [Compound 3-314],A (Fresh weight inhibition rate≥80% to 100%),A (Fresh weight inhibition rate≥80% to 100%),A (Fresh weight inhibition rate≥80% to 100%),A (Fresh weight inhibition rate≥80% to 100%),A (Fresh weight inhibition rate≥80% to 100%)
CS(=O)(=O)c1ccc(C(=O)Nc2nnco2)c(Cl)c1[S+]([O-])C1CCCCC1 (racemic) [Compound 3-319],A (Fresh weight inhibition rate≥80% to 100%),A (Fresh weight inhibition rate≥80% to 100%),A (Fresh weight inhibition rate≥80% to 100%),A (Fresh weight inhibition rate≥80% to 100%),A (Fresh weight inhibition rate≥80% to 100%)
CS(=O)(=O)c1ccc(C(=O)Nc2nnco2)c(Cl)c1[S+]([O-])CC(F)(F)F (racemic) [Compound 3-324],A (Fresh weight inhibition rate≥80% to 100%),A (Fresh weight inhibition rate≥80% to 100%),A (Fresh weight inhibition rate≥80% to 100%),A (Fresh weight inhibition rate≥80% to 100%),A (Fresh weight inhibition rate≥80% to 100%)
